Assay results reported in patent publication US12252701B2, “Chimeric antigen receptor T cell therapy” (KITE PHARMA, INC., priority 2020, dated 2025).

Assays:
[1] = in vitro; settings: human, CAR-T cells
[2] = test system: phospho-STAT panel (pSTAT3/4/5), CD3+ T cells; assay: phospho-STAT induction by IL-6, MesoScale Discovery phospho-STAT panel; format: cell-based, human; settings: lower dose titration, CD3+ T cells; for pSTAT3: MSD signal (No stim. 123, IL-6 alone 5767); for pSTAT4: MSD signal (No stim. 281, IL-6 alone 3624); for pSTAT5: MSD signal (No stim. 324, IL-6 alone 2352)
Experimental: CD19 CAR-T, PBMC or CD3+ T cells (AllCells) were thawed and rested 0/N at 37° C. in R10 media. Cells were seeded at 700,000 cells/well and were either untreated or treated with 100 ng/ml IL6+drug at indicated concentrations for 20 minutes at 37° C. The cells were then washed with cold PBS and followed by 60 μl of Tris lysis buffer (provided by MSD) for 30 minutes on ice. Lysates were collected by spin down for 10 minutes at >10,000 rpm. 25 μl/well per condition was used for MesoScale Discovery (MSD) assay using the phospho-STAT panel (pSTAT3/4/5) from MesoScale Discovery following the manufacturer's protocol. pSTAT panel plates were blocked with 150 μl of blocker A solution for 1 hr at RT with shaking. Plates were washed three times with 1× Tris wash buffer. 25 μl of lysate samples were added per well, incubated 2 hr at room temperature or at 4° C. overnight. Plates were washed 3 times with 1× tris wash buffer and then 25 μl of detection antibody solution were added to each well and incubated for 1 hr at room temperature with shaking. Plates were washed and 1× read buffer added to each well and plates were read on the MSD instrument.

[3] = test system: Nalm-6 luc; assay: CAR-T cell killing assay (luciferase viability of tumor cells)

Work on `CCS(=O)(=O)N1CC(CC#N)(n2cc(-c3ncnc4[nH]ccc34)cn2)C1` [baricitinib] yielded a viability at 0 day, 5 nM [1] of 75%, a viability at 0 day, 10 nM [1] of 75% and a viability at 4 day, 5 nM [1] of 67.4%. It also gave a viability at 4 day, 10 nM [1] of 58.9%, a viability at 8 day, 5 nM [1] of 72.7% and a viability at 12 day, 5 nM [1] of 82.3%. The viability at 12 day, 10 nM [1] was 71.2%, the pSTAT3 ([2]; IL-6 + drug 3.125 nM) was 5208 and the pSTAT4 ([2]; IL-6 + drug 3.125 nM) was 2961. For the same compound, the pSTAT5 ([2]; IL-6 + drug 3.125 nM) was 1408, the pSTAT3 ([2]; IL-6 + drug 6.25 nM) was 2798 and the pSTAT4 ([2]; IL-6 + drug 6.25 nM) was 2801. The pSTAT5 ([2]; IL-6 + drug 6.25 nM) was 1243, the pSTAT3 ([2]; IL-6 + drug 12.5 nM) was 2528 and the pSTAT4 ([2]; IL-6 + drug 12.5 nM) was 1741. It also gave a pSTAT5 ([2]; IL-6 + drug 12.5 nM) of 827, a pSTAT3 ([2]; IL-6 + drug […] nM) of 1441 and a pSTAT4 ([2]; IL-6 + drug […] nM) of 1359. It also gave a pSTAT5 ([2]; IL-6 + drug […] nM) of 710, a pSTAT3 ([2]; IL-6 + drug 50 nM) of 702 and a pSTAT4 ([2]; IL-6 + drug 50 nM) of 1059. It also gave a pSTAT5 ([2]; IL-6 + drug 50 nM) of 586, a pSTAT3 ([2]; IL-6 + drug 100 nM) of 288 and a pSTAT4 ([2]; IL-6 + drug 100 nM) of 690. The pSTAT5 ([2]; IL-6 + drug 100 nM) was 471, the “Mean tumor cell death (%)” value ([3]; E:T ratio 1:1, dose 10 nM) was 97.9% and the “Mean tumor cell death (%)” value ([3]; E:T ratio 1:1, dose 20 nM) was 97.5%. For the same compound, the “Mean tumor cell death (%)” value ([3]; E:T ratio 1:1, dose 40 nM) was 85.7%, the “Mean tumor cell death (%)” value ([3]; E:T ratio 1:1, dose 60 nM) was 96.2% and the “Mean tumor cell death (%)” value ([3]; E:T ratio 1:1, dose 80 nM) was 96%. The “Mean tumor cell death (%)” value ([3]; E:T ratio 1:1, dose 100 nM) was 93.1%, the “Mean tumor cell death (%)” value ([3]; E:T ratio 1:3, dose 10 nM) was 65.6% and the “Mean tumor cell death (%)” value ([3]; E:T ratio 1:3, dose 20 nM) was 65%. For the same compound, the “Mean tumor cell death (%)” value ([3]; E:T ratio 1:3, dose 40 nM) was 67.4%, the “Mean tumor cell death (%)” value ([3]; E:T ratio 1:3, dose 60 nM) was 59% and the “Mean tumor cell death (%)” value ([3]; E:T ratio 1:3, dose 80 nM) was 55%. The “Mean tumor cell death (%)” value ([3]; E:T ratio 1:3, dose 100 nM) was 31.1%, the “Mean tumor cell death (%)” value ([3]; E:T ratio 1:9, dose 10 nM) was 25.4% and the “Mean tumor cell death (%)” value ([3]; E:T ratio 1:9, dose 20 nM) was 27.6%. For the same compound, the “Mean tumor cell death (%)” value ([3]; E:T ratio 1:9, dose 40 nM) was 26.1%, the “Mean tumor cell death (%)” value ([3]; E:T ratio 1:9, dose 60 nM) was 21.1% and the “Mean tumor cell death (%)” value ([3]; E:T ratio 1:9, dose 80 nM) was 3.97%. The “Mean tumor cell death (%)” value ([3]; E:T ratio 1:9, dose 100 nM) was 5.5%.
